# In ChEMBL document CHEMBL5523706, “Structure-based drug design of DNA minor groove binders and evaluation of their antibacterial and anticancer properties” (Eur J Med Chem, 2024):
# Calls of active or inactive are those of the source. No cut-off for these calls is given here.
# Key:
# [1] = system: DNA; test: Binding affinity to d(5'-GCGACTAGTCGC-3')2 duplex DNA (unknown origin) at DNA to ligand stoichiometric ratio of 0.5:1 measured at 298K by isothermal titration calorimetry; assay type: nucleic-acid assay
# [2] = system: Panel NCI-60 (60 carcinoma cell lines); test: Antitumor activity against human NCI-60 cells assessed as inhibition of cell growth at 10 uM incubated for 48 hrs by SRB assay; assay type: functional
# [3] = system: Streptococcus pneumoniae; test: Bactericidal activity against Streptococcus pneumoniae ATCC 13883 assessed as reduction in bacterial viability at 100 uM incubated for 2 hrs in autoclaved distilled water followed by culturing on agar for overnight; assay type: functional; conditions: for inhibition at 100 µM: ATCC 13883, 2 h
# [4] = Cytotoxicity against human HDF cells assessed as reduction in cell viability at 50 uM incubated for 24 hrs by MTT assay relative to control; assay type: toxicity, cell-based; conditions: HDF cells (NHDF cell line), read-out: INH
# [5] = system: DNA; test: Binding affinity to minor groove of d(5'-GCGACTAGTCGC3')2 duplex DNA (unknown origin) assessed as change in melting temperature at 2 equiv. in presence of 8 uM DNA measured at 30 to 100 degC by UV spectrophotometric analysis; assay type: nucleic-acid assay
# [6] = system: DNA; test: Binding affinity to d(5'-GCGACTAGTCGC-3')2 duplex DNA (unknown origin) assessed as change in entropy at 10 uM measured at 298K by isothermal titration calorimetry; assay type: nucleic-acid assay
# [7] = system: Serratia marcescens; test: Bactericidal activity against Serratia marcescens ATCC 13880 assessed as reduction in bacterial viability at 100 uM incubated for 2 hrs in autoclaved distilled water followed by culturing on agar for overnight; assay type: functional
# [8] = system: DNA; test: Binding affinity to d(5'-GCGACTAGTCGC-3')2 duplex DNA (unknown origin) assessed as change in free energy at 10 uM measured at 298K by isothermal titration calorimetry; assay type: nucleic-acid assay
# [9] = system: Streptococcus pyogenes; test: Bactericidal activity against Streptococcus pyogenes ATCC 49399 assessed as reduction in bacterial viability at 100 uM incubated for 2 hrs in autoclaved distilled water followed by culturing on agar for overnight; assay type: functional; conditions: for inhibition at 100 µM: ATCC 49399, 2 h
# [10] = system: DNA; test: Binding affinity to d(5'-GCGACTAGTCGC-3')2 duplex DNA (unknown origin) assessed as change in enthalpy at 10 uM measured at 298K by isothermal titration calorimetry; assay type: nucleic-acid assay
# [11] = Dissociation constant, pKa of the compound; assay type: physicochemical
# [12] = system: Bacillus cereus; test: Bactericidal activity against Bacillus cereus MTCC 131621 assessed as reduction in bacterial viability at 100 uM incubated for 2 hrs in autoclaved distilled water followed by culturing on agar for overnight; assay type: functional; conditions: MTCC 131621, 2 h
# [13] = system: Salmonella enterica; test: Antibacterial activity against Salmonella enterica assessed as reduction in bacteria-mediated cytopathogenicity pretreated with bacteria followed by incubation with human cells; assay type: functional
# [14] = system: Escherichia coli; test: Bactericidal activity against Escherichia coli K1 MTCC 710859 assessed as reduction in bacterial viability at 100 uM incubated for 2 hrs in autoclaved distilled water followed by culturing on agar for overnight; assay type: functional; conditions: for inhibition at 100 µM: K1 MTCC 710859, 2 h
# [15] = system: Bacillus cereus; test: Antibacterial activity against Bacillus cereus assessed as reduction in bacteria-mediated cytopathogenicity pretreated with bacteria followed by incubation with human cells; assay type: functional
# [16] = system: Salmonella enterica; test: Bactericidal activity against Salmonella enterica ATCC 14028 assessed as reduction in bacterial viability incubated for 2 hrs in autoclaved distilled water followed by culturing on agar for overnight; assay type: functional; conditions: ATCC 14028, 2 h
# [17] = system: DNA; test: Binding affinity to d(5'-GCGACTAGTCGC-3')2 duplex DNA (unknown origin) at 10 uM measured at 298K by isothermal titration calorimetry; assay type: nucleic-acid assay
# [18] = system: NHDF; test: Cytotoxicity against human HDF cells assessed as reduction in cell viability at 50 uM incubated for 24 hrs by MTT assay; assay type: toxicity, cell-based
# [19] = system: Escherichia coli; test: Bactericidal activity against Escherichia coli K1 MTCC 710859 assessed as reduction in bacterial viability incubated for 2 hrs in autoclaved distilled water followed by culturing on agar for overnight; assay type: functional; conditions: K1 MTCC 710859, 2 h
# [20] = system: Bacillus cereus; test: Bactericidal activity against Bacillus cereus MTCC 131621 assessed as reduction in bacterial viability incubated for 2 hrs in autoclaved distilled water followed by culturing on agar for overnight; assay type: functional; conditions: MTCC 131621, 2 h
# [21] = system: Salmonella enterica; test: Bactericidal activity against Salmonella enterica ATCC 14028 assessed as reduction in bacterial viability at 100 uM incubated for 2 hrs in autoclaved distilled water followed by culturing on agar for overnight; assay type: functional; conditions: ATCC 14028, 2 h
# [22] = system: Streptococcus pyogenes; test: Bactericidal activity against Streptococcus pyogenes ATCC 49399 assessed as reduction in bacterial viability incubated for 2 hrs in autoclaved distilled water followed by culturing on agar for overnight; assay type: functional; conditions: ATCC 49399, 2 h
# [23] = system: Streptococcus pneumoniae; test: Bactericidal activity against Streptococcus pneumoniae ATCC 13883 assessed as reduction in bacterial viability incubated for 2 hrs in autoclaved distilled water followed by culturing on agar for overnight; assay type: functional; conditions: ATCC 13883, 2 h
# [24] = system: Serratia marcescens; test: Bactericidal activity against Serratia marcescens ATCC 13880 assessed as reduction in bacterial viability incubated for 2 hrs in autoclaved distilled water followed by culturing on agar for overnight; assay type: functional; conditions: ATCC 13880, 2 h
Structure (SMILES),inhibition at 10 µM [2] [%],"cytotoxicity at 24 h, 50 µM [4] [%]",ΔTm [5] [°C],Activity [7],pKa [11],inhibition at 100 µM [12] [%],inhibition (INH) [13] [%],inhibition (INH) [15] [%],Activity [18],further results
CC(C)c1sc(NC(=O)c2cc(NC(=O)c3cc(NC(=O)c4cscn4)cn3C)cn2C)nc1C(=O)NCCCN(C)C,92.4,20,20,inactive,9.3,42,41,40,–,Activity [1]: Active; Activity [3]: inactive; TdeltaS [6]: -10.5 kcal/mol; deltaG [8]: -8.46 kcal/mol; Activity [9]: inactive; deltaH [10]: -19 kcal/mol; Activity [14]: inactive; MIC50 [16]: 52 µM; MIC90 [16]: 134 µM; K [17]: 2 10^6/M
CN(C)CCCNC(=O)c1cc(NC(=O)c2cc(NC(=O)c3ccc(C#Cc4ccccc4)cc3)cn2C)cn1C,126,–,–,–,9.3,59,–,–,–,–
CN(C)CCCNC(=O)c1cc(NC(=O)c2cc(NC(=O)c3ccc(/C=C/c4ccccc4)cc3)cn2C)cn1C,64.1,–,–,–,9.3,–,–,–,Toxic,–
CN(C)CCCNC(=O)c1cc(NC(=O)c2cc(NC(=O)c3cc(NC(=O)c4nccn4C)cn3C)cn2C)cn1C,-3.79,–,–,–,9.3,–,–,–,Toxic,–
CN(C)CCCNC(=O)c1cc(NC(=O)c2cc(NC(=O)c3cc(NC(=O)c4cscn4)cn3C)cn2C)cn1C,–,20,–,–,9.3,–,–,–,–,–
Cn1cc(NC(=O)c2cc(NC(=O)c3ccc(/C=C/c4ccccc4)cc3)cn2C)cc1C(=O)NCCCN1CCOCC1,94.1,–,21,inactive,7.01,87,44,70,Non-Toxic,inhibition at 100 µM [3]: 100%; MIC90 [19]: 76 µM; inhibition at 100 µM [9]: 67%; MIC50 [20]: 37 µM; MIC90 [20]: 34.3 µM; inhibition at 100 µM [21]: 95%; inhibition at 100 µM [14]: 50%; MIC90 [22]: 55 µM; MIC90 [23]: 47 µM
Cn1cc(NC(=O)c2cc(NC(=O)c3ccc(C#Cc4ccccc4)cc3)cn2C)cc1C(=O)NCCCN1CCOCC1,97.7,20,22,–,7.01,98,30,74,–,"inhibition at 100 µM [3]: 97%; MIC90 [19]: 106 µM; MIC90 [24]: 88 µM; inhibition at 100 µM ([7]; ATCC 13880, 2 h): 80%; inhibition at 100 µM [9]: 83%; inhibition at 100 µM [21]: 90%; inhibition at 100 µM [14]: 40%; MIC50 [16]: 58 µM; MIC90 [16]: 117 µM; MIC90 [22]: 51 µM; MIC90 [23]: 53 µM"
CC(C)c1sc(NC(=O)c2cc(NC(=O)c3cc(NC(=O)c4nccn4C)cn3C)cn2C)nc1C(=O)NCCCN(C)C,24.1,20,18,inactive,9.3,63,77,90,–,Activity [1]: Active; inhibition at 100 µM [3]: 60%; TdeltaS [6]: -12.2 kcal/mol; deltaG [8]: -8.41 kcal/mol; Activity [9]: inactive; deltaH [10]: -20.6 kcal/mol; MIC50 [20]: 28 µM; MIC90 [20]: 33.7 µM; inhibition at 100 µM [21]: 60%; Activity [14]: inactive; MIC50 [16]: 64 µM; MIC90 [16]: 101 µM; K [17]: 1.42 10^6/M; MIC90 [23]: 67 µM
Cn1cc(NC(=O)c2cc(NC(=O)CCSc3ccc4ccccc4c3)cn2C)cc1C(=O)NCCCN1CCOCC1,7.46,20,–,inactive,7.01,–,–,–,–,–
Cc1ccc(CSCCC(=O)Nc2cc(C(=O)Nc3cc(C(=O)NCCCN(C)C)n(C)c3)n(C)c2)cc1,2.57,20,–,–,9.3,–,–,–,–,–
Cc1ccc(CSCCC(=O)Nc2cc(C(=O)Nc3cc(C(=O)NCCCN4CCOCC4)n(C)c3)n(C)c2)cc1,2.57,–,–,–,7.01,–,–,–,Non-Toxic,–
